Source: patent publication US4652548A (Eli Lilly and Company, priority 1984, dated 1987)

Tests used:
[1] = test system: fasting Type II diabetic patients; experiment: Subcutaneous administration to fasting Type II diabetic patients: plasma glucose; type: in vivo, human
[2] = five Type II subjects, 0.2 U/kg s.c.
[3] = test system: hepatic glucose output (HGO); experiment: Kinetics of deactivation of effect on hepatic glucose output (HGO); type: in vivo, human
Excerpt: At this point, the hormone infusion was abruptly stopped, and the glucose concentration was maintained constant until the biologic effects of the infused hormone were no longer detectable.

HGO = test system: HGO
Excerpt: For example, in non-insulin dependent diabetes mellitus (NIDDM), one of the major metabolic abnormalities that maintains the resultant hyperglycemic state is accelerated hepatic glucose production.

hepatic glucose output = experiment: Euglycemic glucose-clamp: suppression of hepatic glucose output; type: in vivo, human
Protocol: J. Physiol. 237:E214-E223 (1979). With this technique, an antecuubital vein is cannulated in an antegrade manner to administer the infusates. A dorsal hand vein is cannulated in a retrograde fashion and kept in a warming device (70° C.) to facilitate venous sampling and provide arterialized venous blood After insertion of the catheters, [3-3H]-glucose is infused for at least 30 minutes before initiating the hormone infusion. At the onset of hormone infusion, a priming dose of either insulin or proinsulin is administered during the initial 10 minutes in a logarithmically decreasing manner to acutely raise the serum hormone level. […] The overall glucose disposal rate is assessed isotopically for each 20 minute interval of the study.
Each subject underwent a total of 8 euglycemic glucose clamp studies, each performed on a separate day. […] Hepatic glucose output was quantitated in the basal state and during each clamp study using a primed continuous infusion of [3-3H]glucose. […] The dose response relationship for insulin and proinsulin mediated suppression of hepatic glucose output was determined by calculating the percent suppression of basal hepatic glucose output at each steady state hormone concentration obtained during the euglycemic clamp studies.

glucose disposal = experiment: Euglycemic glucose-clamp: glucose disposal rate; type: in vivo, human
Protocol: With this technique, an antecuubital vein is cannulated in an antegrade manner to administer the infusates. A dorsal hand vein is cannulated in a retrograde fashion and kept in a warming device (70° C.) to facilitate venous sampling and provide arterialized venous blood After insertion of the catheters, [3-3H]-glucose is infused for at least 30 minutes before initiating the hormone infusion. At the onset of hormone infusion, a priming dose of either insulin or proinsulin is administered during the initial 10 minutes in a logarithmically decreasing manner to acutely raise the serum hormone level. The amount of insulin or proinsulin given during this initial 10 minute period is roughly twice that given during each subsequent 10 minute interval by a continuous hormone infusion The serum glucose is maintained between 80 and 90 mg/dl throughout the study period with a coefficient of variation of less than 5% by means of a variable rate of infusion of 20% dextrose. The overall glucose disposal rate is assessed isotopically for each 20 minute interval of the study.
On one day, each subject received a 5.0 μg/M^2 /min (120 mU/M^2 /min) insulin infusion over a 6 hour period. […] Each proinsulin infusion was carried out for 300 minutes, with the quantitation of its biological effects based on measurements made during the 5th hour of each study. […]

[4] = Study A (insulin 15 mU/M^2/min, proinsulin 2.75 μg/M^2/min), Mean ± SE

For “human proinsulin: human proinsulin, available by organic synthesis, isolation from human pancreas or recombinant DNA methodology”, the “Plasma Glucose” value ([1]; subject one, total dose 14.8 I.U. (0.2 U/kg s.c.), 300 min after injection) was 80 mg/dL, the “Plasma Glucose” value ([1]; subject one, total dose 14.8 I.U. (0.2 U/kg s.c.), 320 min after injection) was 80 mg/dL and the “Plasma Glucose” value ([1]; subject three, total dose 27.2 I.U. (0.2 U/kg s.c.), 0 min after injection) was 159 mg/dL. For the same substance, the “Plasma Glucose” value ([1]; subject three, total dose 27.2 I.U. (0.2 U/kg s.c.), 40 min after injection) was 144 mg/dL, the “Plasma Glucose” value ([1]; subject three, total dose 27.2 I.U. (0.2 U/kg s.c.), 120 min after injection) was 128 mg/dL and the “Plasma Glucose” value ([1]; subject three, total dose 27.2 I.U. (0.2 U/kg s.c.), 200 min after injection) was 110 mg/dL. The “Plasma Glucose” value ([1]; subject three, total dose 27.2 I.U. (0.2 U/kg s.c.), 240 min after injection) was 101 mg/dL, the “Plasma Glucose” value ([1]; subject three, total dose 27.2 I.U. (0.2 U/kg s.c.), 280 min after injection) was 98 mg/dL and the “Plasma Glucose” value ([1]; subject three, total dose 27.2 I.U. (0.2 U/kg s.c.), 300 min after injection) was 88 mg/dL. For the same substance, the “Plasma Glucose” value ([1]; subject three, total dose 27.2 I.U. (0.2 U/kg s.c.), 360 min after injection) was 84 mg/dL, the “Plasma Glucose” value ([1]; subject three, total dose 27.2 I.U. (0.2 U/kg s.c.), 400 min after injection) was 85 mg/dL and the “Plasma Glucose” value ([1]; subject three, total dose 27.2 I.U. (0.2 U/kg s.c.), 440 min after injection) was 86 mg/dL. The “Plasma Glucose” value ([1]; subject three, total dose 27.2 I.U. (0.2 U/kg s.c.), 480 min after injection) was 88 mg/dL, the “Plasma Glucose” value ([1]; subject two, total dose 20.0 I.U. (0.2 U/kg s.c.), 0 min after injection) was 231 mg/dL and the “Plasma Glucose” value ([1]; subject two, total dose 20.0 I.U. (0.2 U/kg s.c.), 40 min after injection) was 217 mg/dL. For the same substance, the “Plasma Glucose” value ([1]; subject two, total dose 20.0 I.U. (0.2 U/kg s.c.), 80 min after injection) was 201 mg/dL, the “Plasma Glucose” value ([1]; subject two, total dose 20.0 I.U. (0.2 U/kg s.c.), 120 min after injection) was 191 mg/dL and the “Plasma Glucose” value ([1]; subject two, total dose 20.0 I.U. (0.2 U/kg s.c.), 160 min after injection) was 182 mg/dL. The “Plasma Glucose” value ([1]; subject two, total dose 20.0 I.U. (0.2 U/kg s.c.), 240 min after injection) was 164 mg/dL, the “Plasma Glucose” value ([1]; subject two, total dose 20.0 I.U. (0.2 U/kg s.c.), 280 min after injection) was 143 mg/dL and the “Plasma Glucose” value ([1]; subject two, total dose 20.0 I.U. (0.2 U/kg s.c.), 300 min after injection) was 134 mg/dL. The “Plasma Glucose” value ([1]; subject two, total dose 20.0 I.U. (0.2 U/kg s.c.), 360 min after injection) was 128 mg/dL, the “Plasma Glucose” value ([1]; subject two, total dose 20.0 I.U. (0.2 U/kg s.c.), 400 min after injection) was 117 mg/dL and the “Plasma Glucose” value ([1]; subject two, total dose 20.0 I.U. (0.2 U/kg s.c.), 440 min after injection) was 112 mg/dL. The “Plasma Glucose” value ([1]; subject two, total dose 20.0 I.U. (0.2 U/kg s.c.), 480 min after injection) was 104 mg/dL, the “Plasma Glucose” value ([1]; subject two, total dose 20.0 I.U. (0.2 U/kg s.c.), 500 min after injection) was 100 mg/dL and the “Plasma Glucose” value ([1]; subject, total dose 15.0 I.U. (0.2 U/kg s.c.), 0 min after injection) was 332 mg/dL. For the same substance, the “Plasma Glucose” value ([1]; subject, total dose 15.0 I.U. (0.2 U/kg s.c.), 40 min after injection) was 328 mg/dL, the “Plasma Glucose” value ([1]; subject, total dose 15.0 I.U. (0.2 U/kg s.c.), 80 min after injection) was 308 mg/dL and the “Plasma Glucose” value ([1]; subject, total dose 15.0 I.U. (0.2 U/kg s.c.), 120 min after injection) was 288 mg/dL. The “Plasma Glucose” value ([1]; subject, total dose 15.0 I.U. (0.2 U/kg s.c.), 160 min after injection) was 272 mg/dL, the “Plasma Glucose” value ([1]; subject, total dose 15.0 I.U. (0.2 U/kg s.c.), 200 min after injection) was 247 mg/dL and the “Plasma Glucose” value ([1]; subject, total dose 15.0 I.U. (0.2 U/kg s.c.), 240 min after injection) was 210 mg/dL. For the same substance, the “Plasma Glucose” value ([1]; subject, total dose 15.0 I.U. (0.2 U/kg s.c.), 280 min after injection) was 174 mg/dL, the “Plasma Glucose” value ([1]; subject, total dose 15.0 I.U. (0.2 U/kg s.c.), 360 min after injection) was 94 mg/dL and the “Mean peak hormone blood level” value [2] was 6.8 pmol/mL. For the same substance, the “Time of mean peak hormone blood level” value [2] was 230 ± 33 min, the “Time until a decline in effect to suppress HGO could be detected” value ([3]; after infusion stopped) was 120 min and the “Time until HGO returned to baseline values, extrapolation of the curve” value ([3]; after stopping 5 hour infusion) was greater than 6 h. For the same substance, the “t 1/2 of deactivation of effect to inhibit HGO” value ([3]; after stopping 5 hour infusion (human insulin 0.55, human proinsulin 2.75 μg/M2/min)) was 3.83 ± 0.317 h, the “Expected suppression of HGO in NIDDM subjects” value (HGO; circulating concentration approximately 1.5-2 pmol/ml) was “approximately 50%” and the “Expected duration of adequate glycemic control” value (HGO; sustained level 1.5-2 pmol/ml for about 3 hours by CSII or single s.c. injection) was 8 to 10 h. The “Suppression of Hepatic Glucose Output (%)” value (hepatic glucose output; [4]) was 80 ± 6%, the “Serum hormone concentration required to achieve 90% suppression of hepatic glucose output” value (hepatic glucose output; healthy subjects, steady state, euglycemic clamp) was 3.35 pmol/mL and the “Time to reach steady state rates of glucose disposal” value (glucose disposal; 5 subjects, insulin 5.0 μg/M^2/min over 6 h, proinsulin 22.5 μg/M^2/min over 8 h) was no more than 5 h. The “Glucose Disposal Rate” value (glucose disposal; [4]) was 122 ± 11 mg/M^2/min.
